Assay [1] concerns the target T1, PCM-F (pivalyl-CoA mutase fusion protein) (Xanthobacter versatilis, UniProt A7IQE5+A7IQE6).
T1 sequence (A7IQE5 1-559): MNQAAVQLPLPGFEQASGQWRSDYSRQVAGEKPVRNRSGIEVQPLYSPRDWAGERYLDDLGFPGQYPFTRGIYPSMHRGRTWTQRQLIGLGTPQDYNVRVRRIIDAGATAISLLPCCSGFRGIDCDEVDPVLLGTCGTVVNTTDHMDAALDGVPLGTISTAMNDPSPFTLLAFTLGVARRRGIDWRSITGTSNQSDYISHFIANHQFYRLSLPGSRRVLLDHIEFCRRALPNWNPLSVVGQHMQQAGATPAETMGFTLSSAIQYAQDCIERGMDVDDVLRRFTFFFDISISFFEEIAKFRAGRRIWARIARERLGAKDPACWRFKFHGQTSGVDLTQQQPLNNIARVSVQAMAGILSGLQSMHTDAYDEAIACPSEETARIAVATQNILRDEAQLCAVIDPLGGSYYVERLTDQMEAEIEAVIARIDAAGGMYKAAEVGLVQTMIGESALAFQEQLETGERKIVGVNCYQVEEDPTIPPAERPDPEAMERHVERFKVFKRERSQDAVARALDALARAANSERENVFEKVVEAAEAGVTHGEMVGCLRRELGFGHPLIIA
T1 sequence (A7IQE6 1-148): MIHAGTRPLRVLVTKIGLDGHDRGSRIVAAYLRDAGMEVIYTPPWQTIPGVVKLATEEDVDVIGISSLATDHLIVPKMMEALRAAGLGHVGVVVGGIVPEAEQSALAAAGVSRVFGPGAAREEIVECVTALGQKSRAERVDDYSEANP
Nature of the assay: mutase conversion assay in crude E. coli lysate. Format: biochemical. The conditions noted are these: vitamin B12-dependent mutase; without G-protein chaperone.

Assay [2] has as its target T2, Ralstonia sp. ADH (Ralstonia sp. DSMZ 6428, UniProt C0IR58).
T2 sequence (C0IR58 1-249): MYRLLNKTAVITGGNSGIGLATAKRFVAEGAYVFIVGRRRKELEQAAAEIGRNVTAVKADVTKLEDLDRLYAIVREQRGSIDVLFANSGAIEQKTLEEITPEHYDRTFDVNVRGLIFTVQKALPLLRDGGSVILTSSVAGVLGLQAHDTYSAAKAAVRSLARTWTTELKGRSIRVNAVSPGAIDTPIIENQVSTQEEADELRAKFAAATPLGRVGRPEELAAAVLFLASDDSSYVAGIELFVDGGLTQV
Put plainly: alcohol dehydrogenase assay, aldehyde reduction. Format: biochemical. The conditions noted are these: reduction of pivaldehyde to pivalcohol.

This note sets out measurements from publication PMC7195871 (ACS synthetic biology, 2018).

For `CC(C)CC(=O)SCCNC(=O)CCNC(=O)[C@H](O)C(C)(C)COP(=O)(O)OP(=O)(O)OC[C@H]1O[C@@H](n2cnc3c(N)ncnc32)[C@H](O)[C@@H]1OP(=O)(O)O` [isovaleryl-CoA], the “mutase conversion assay in crude E. coli lysate” value in assay [1] is listed as “significant activity in converting isovaleryl-CoA to pivalyl-CoA in crude cell lysates”.

As to `CC(C)(C)C=O` [pivaldehyde], in assay [2], the “alcohol dehydrogenase assay, aldehyde reduction” value was “Ralstonia sp. ADH showed the highest activity toward pivaldehyde”.

As for `CC(C)(C)C(=O)SCCNC(=O)CCNC(=O)[C@H](O)C(C)(C)COP(=O)(O)OP(=O)(O)OC[C@H]1O[C@@H](n2cnc3c(N)ncnc32)[C@H](O)[C@@H]1OP(=O)(O)O` [pivalyl-CoA], the “mutase conversion assay in crude E. coli lysate” value in assay [1] is recorded as “significant activity in converting isovaleryl-CoA to pivalyl-CoA in crude cell lysates”.
